# Laboratory results as given in patent US8658642B2 (Axikin Pharmaceuticals, Inc., priority 2009, dated 2014).
# pKi: −log10 of the molar value.
# Columns and labels:
# CCR3 = target: T1, CCR3 (Homo sapiens, UniProt P51677); test: CCR3 receptor binding assay ([125I]-labeled human eotaxin/CCL11 displacement on cells); conditions: 0.1 nM [125I]-labeled human eotaxin/CCL11, 2×10^5 cells/well, 60 min at room temperature
# T1 sequence (P51677 1-355): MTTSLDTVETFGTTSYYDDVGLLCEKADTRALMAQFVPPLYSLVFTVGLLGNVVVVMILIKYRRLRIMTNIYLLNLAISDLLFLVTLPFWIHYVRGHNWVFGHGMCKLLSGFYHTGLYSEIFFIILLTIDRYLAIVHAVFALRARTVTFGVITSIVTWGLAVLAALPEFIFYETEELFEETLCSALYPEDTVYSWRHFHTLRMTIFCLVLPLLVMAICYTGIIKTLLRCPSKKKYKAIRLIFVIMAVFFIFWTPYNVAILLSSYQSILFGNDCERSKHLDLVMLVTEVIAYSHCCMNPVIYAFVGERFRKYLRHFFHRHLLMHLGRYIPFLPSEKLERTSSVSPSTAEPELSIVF
# In short: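 Cells (2×10^5/well) incubated 60 min at room temperature with 0.1 nM [125I]-human eotaxin/CCL11 in 25 mM HEPES pH 7.6, MgCl2, CaCl2, 0.5% BSA. Bound radioactivity counted after filtration and 0.5 M NaCl washes. Non-specific binding defined with 500 nM unlabeled eotaxin.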
melting point,pKi (CCR3),SMILES
277 to 281 °C,< 5.30,"CS(=O)(=O)N1CCN(S(=O)(=O)c2cc([N+](=O)[O-])ccc2Sc2cc(Cl)ccc2Cl)CC1 [Compound 202, 1-(2-(2,5-Dichlorophenylthio)-5-nitrophenylsulfonyl)-4-(methylsulfonyl)-piperazine]"
190 to 193 °C,< 5.30,"Cc1ccc(C)c(Sc2ccc([N+](=O)[O-])cc2S(=O)(=O)N2CCN(C(=O)c3ccccc3)CC2)c1 [Compound 172, (4-(2-(2,5-Dimethylphenylthio)-5-nitrophenylsulfonyl)piperazin-1-yl)(phenyl)methanone]"
206 to 209 °C,< 5.30,"O=C(c1ccccc1)N1CCN(S(=O)(=O)c2cc([N+](=O)[O-])ccc2Oc2cc(Cl)ccc2Cl)CC1 [Compound 182, (4-(2-(2,5-Dichlorophenoxy)-5-nitrophenylsulfonyl)piperazin-1-yl)(phenyl)methanone]"
231 to 234 °C,< 5.30,"CN(C)S(=O)(=O)N1CCN(S(=O)(=O)c2cc([N+](=O)[O-])ccc2Sc2cc(Cl)ccc2Cl)CC1 [Compound 203, 4-(2-(2,5-Dichlorophenylthio)-5-nitrophenylsulfonyl)-N,N-dimethyl-piperazine-1-sulfonamide]"
199 to 202 °C,–,"O=C(c1ccco1)N1CCN(S(=O)(=O)c2cc([N+](=O)[O-])ccc2Sc2cc(Cl)ccc2Cl)CC1 [Compound 166, (4-(2-(2,5-Dichlorophenylthio)-5-nitrophenylsulfonyl)piperazin-1-yl)(furan-2-yl)methanone]"
–,< 5.30,"COc1ccc(C(=O)N2CCN(S(=O)(=O)c3cc([N+](=O)[O-])ccc3Oc3cc(C)ccc3C)CC2)cc1 [Compound 189, (4-(2-(2,5-Dimethylphenoxy)-5-nitrophenylsulfonyl)piperazin-1-yl)(4-methoxyphenyl)methanone]"

# The remaining lines, values behind:
SMILES,melting point,pKi (CCR3)
"O=[N+]([O-])c1ccc(Sc2cc(Cl)ccc2Cl)c(S(=O)(=O)N2CCN(S(=O)(=O)c3ccccc3)CC2)c1 [Compound 204, 1-(2-(2,5-Dichlorophenylthio)-5-nitrophenylsulfonyl)-4-(phenylsulfonyl)-piperazine]",236 to 239 °C,< 5.30
"O=[N+]([O-])c1ccc(Sc2cc(Cl)ccc2Cl)c(S(=O)(=O)N2CCN(S(=O)(=O)c3ccc(C(F)(F)F)cc3)CC2)c1 [Compound 205, 1-(2-(2,5-dichlorophenylthio)-5-nitrophenylsulfonyl)-4-(4-(trifluoromethyl)phenylsulfonyl)piperazine]",264 to 267 °C,< 5.30
CCN(CC)C(=O)N1CCN(S(=O)(=O)c2cc(C#N)ccc2Oc2cc(C)cc(C)c2)CC1 [Compound 120],–,< 5.30
"N#Cc1ccc(Oc2cc(Cl)cc(Cl)c2)c(S(=O)(=O)N2CCN(C(=O)C3CCCC3)CC2)c1 [Compound 74, 3-(4-(Cyclopentanecarbonyl)piperazin-1-ylsulfonyl)-4-(3,5-dichlorophenoxy)benzonitrile]",–,< 5.30
"O=C(c1ccco1)N1CCN(S(=O)(=O)c2cc([N+](=O)[O-])ccc2Oc2cc(Cl)ccc2Cl)CC1 [Compound 185, (4-(2-(2,5-Dichlorophenoxy)-5-nitrophenylsulfonyl)piperazin-1-yl)(furan-2-yl)methanone]",–,< 5.30
